Source: patent US20240124442A1, “TRICYCLIC-AMIDO-BICYCLIC PRMT5 INHIBITORS” (AMGEN INC., priority 2021, published 2024)
Where two headings read alike, the source gives them in different places.

Assays:
[1] = test system: HCT116 MTAP null cells; test: HCT116 MTAP null cell line proliferation / cell viability (CellTiter-Glo, 6 days); format: cell-based; conditions: HCT116 MTAP null cells, 6 days treatment, CellTiter-Glo cell viability, read-out: HCT-116 MTAP null IC50
Summary of the method: (§1)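 Anti-proliferative IC50s were derived from CellTiter-Glo signal in HCT116 parent and MTAP-null cells after six days on compound. Serial dilutions reached top concentrations of 1, 10 or 50 μM, with DMSO-only wells as control.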

[2] = test system: HCT116 WT cells; test: HCT116 WT (parent) cell line proliferation / cell viability (CellTiter-Glo, 6 days); format: cell-based; conditions: 6 days treatment
Summary of the method: as §1

| SMILES | IC50 ([1]; 144 h) [nM] | IC50 ([2]; Homo sapiens, HCT-116, 144 h) [nM] | IC50 [1] [nM] | IC50 ([2]; read-out: HCT-116 WT IC50) [nM] |
| --- | --- | --- | --- | --- |
| CN(C(=O)c1cc2c(cc1F)nc(N)c1cnn(C)c12)[C@@H]1COCc2cc(C(F)(F)F)cnc21 (single isomer, unassigned) [Example 599] | 64 | 3820 | – | – |
| CN(C(=O)c1ccc2nc(N)c3c(c2c1)COC3)[C@@H]1CCc2nc(C(F)(F)F)ccc21 (single isomer, unassigned) [Example 527] | 143 | 7520 | – | – |
| CN(C(=O)c1cc2c(cn1)nc(N)c1cnn(C)c12)[C@@H]1CCc2nc(C(F)(F)F)ccc21 (single isomer, unassigned) [Example 371] | 27 | 1620 | – | – |
| CCN(C(=O)c1cc2c3c(c(N)nc2cn1)COC3)[C@@H]1COCc2cc(Br)ccc21 (single isomer, unassigned) [Example 587] | 21 | 573 | – | – |
| CN(C(=O)c1cc2c(cc1F)nc(N)c1cnn(C)c12)C1COc2nc(C(F)(F)F)ccc21 (racemic) [Example 242, 4-amino-7-fluoro-N,1-dimethyl-N-((3R)-6-(trifluoromethyl)-2,3-dihydrofuro[2,3-b]pyridin-3-yl)-1H-pyrazolo[4,3-c]-quinoline-8-carboxamide and 4-amino-7-fluoro-N,1-dimethyl-N-((3S)-6-(trifluoromethyl)-2,3-dihydrofuro[2,3-b]pyridin-3-yl)-1H-pyrazolo[4,3-c]-quinoline-8-carboxamide] | 5 | 533 | – | – |
| CN(C(=O)c1cc2c3c(c(N)nc2cn1)COC3)[C@@H]1COc2cc(C(F)(F)F)cc(F)c21 (single isomer, unassigned) [Example 545] | 68 | 3250 | – | – |
| Nc1nc2cc(F)c(C(=O)N(CC3CC3)[C@@H]3COc4cc(C(F)(F)F)ccc43)cc2c2c1COC2 (single isomer, unassigned) [Example 556] | 11 | 133 | – | – |
| CN(C(=O)c1cc2c3c(c(N)nc2cc1F)COC3)[C@@H]1COc2nc(C(F)(F)F)ccc21 (single isomer, unassigned) [Example 351] | 83 | 2850 | – | – |
| CCN(C(=O)c1ccc2nc(N)c3c(c2c1)CO[C@@H]3C)[C@@H]1COc2cc(C(F)(F)F)ccc21 (single isomer, unassigned) [Example 539] | 15 | 663 | – | – |
| CN(C(=O)c1cc2c(cc1F)nc(N)c1cnn(C)c12)C1COc2cc(C(F)(F)F)cc(F)c21 (racemic) [Example 245, 4-amino-7-fluoro-N-((3R)-4-fluoro-6-(trifluoromethyl)-2,3-dihydro-1-benzofuran-3-yl)-N,1-dimethyl-1H-pyrazolo-[4,3-c]quinoline-8-carboxamide and 4-amino-7-fluoro-N-((3S)-4-fluoro-6-(trifluoromethyl)-2,3-dihydro-1-benzofuran-3-yl)-N,1-dimethyl-1H-pyrazolo[4,3-c]quinoline-8-carboxamide] | 19 | 880 | – | – |
| CN(C(=O)c1cc2c(cc1Cl)nc(N)c1cnn(C)c12)[C@@H]1COCc2nc(C(F)(F)F)ccc21 [Example 295, 4-amino-7-chloro-N,1-dimethyl-N-((5S)-2-(trifluoromethyl)-5,8-dihydro-6H-pyrano[3,4-b]-pyridin-5-yl)-1H-pyrazolo[4,3-c]quinoline-8-carboxamide] | 2 | 34 | – | – |
| CN(C(=O)c1ccc2nc(N)c3c(c2c1)COC3)[C@H]1COc2cc([N+](=O)[O-])ccc21 (single isomer, unassigned) [Example 320] | – | – | 3660 | 36400 |
| CN(C(=O)c1cc2c3c(c(N)nc2cn1)COC3)[C@H]1COc2cc(C(F)(F)F)cc(F)c21 (single isomer, unassigned) [Example 546] | 9590 | 30700 | – | – |
| CN(C(=O)c1cc2c(cc1Cl)nc(N)c1cnn(C)c12)[C@H]1COc2nc(C(F)(F)F)ccc21 (single isomer, unassigned) [Example 388] | 136 | 7540 | – | – |
| CCN(C(=O)c1ccc2nc(N)c3c(c2c1)COC3)[C@H]1COc2cc(C(F)(F)F)ccc21 (single isomer, unassigned) [Example 534] | 1730 | 23900 | – | – |
| CN(C(=O)c1ccc2nc(N)c3cnn(C)c3c2c1)[C@@H]1COc2cc(Br)cnc21 [Example 235, 4-amino-N-((3S)-6-bromo-2,3-dihydrofuro[3,2-b]pyridin-3-yl)-N,1-dimethyl-1H-pyrazolo[4,3-c]quinoline-8-carboxamide] | 219 | 10000 | – | – |
| CN(C(=O)c1cc2c(cc1F)nc(N)c1cnn(C)c12)[C@H]1COCc2c(F)cncc21 (single isomer, unassigned) [Example 426] | 355 | 27900 | – | – |
| C[C@H]1OCc2c1c(N)nc1cnc(C(=O)N(C)[C@@H]3COCc4nc(C(F)(F)F)ccc43)cc21 [Example 270, (3R)-4-amino-N,3-dimethyl-N-((5S)-2-(trifluoromethyl)-5,8-dihydro-6H-pyrano[3,4-b]-pyridin-5-yl)-1,3-dihydrofuro-[3,4-c][1,7]naphthyridine-8-carboxamide] | 17 | 740 | – | – |
| CN(C(=O)c1cc2c3c(c(N)nc2cc1F)COC3)C1c2ccc(C(F)(F)F)nc2CC1(C)C (racemic) [Example 213, 4-amino-N-((5R)-6,6-dimethyl-2-(trifluoromethyl)-6,7-dihydro-5H-cyclopenta[b]-pyridin-5-yl)-7-fluoro-N-methyl-1,3-dihydrofuro[3,4-c]-quinoline-8-carboxamide and 4-amino-N-((5S)-6,6-dimethyl-2-(trifluoromethyl)-6,7-dihydro-5H-cyclopenta[b]-pyridin-5-yl)-7-fluoro-N-methyl-1,3-dihydrofuro[3,4-c]-quinoline-8-carboxamide] | 365 | 12900 | – | – |
| Cc1nn(C)c2c1c(N)nc1cc(F)c(C(=O)N(C)[C@@H]3COc4cc(-c5cnn(C(F)(F)F)c5)ccc43)cc12 [Example 268] | 47 | 8560 | – | – |
| CN(C(=O)c1cc2c(cc1F)nc(N)c1c2cnn1C)[C@H]1CCc2nc(C(F)(F)F)ccc21 (single isomer, unassigned) [Example 390] | 6550 | 25000 | – | – |

Next, values leading:

| IC50 ([1]; 144 h) [nM] | IC50 ([2]; Homo sapiens, HCT-116, 144 h) [nM] | IC50 [1] [nM] | IC50 ([2]; read-out: HCT-116 WT IC50) [nM] | SMILES |
| --- | --- | --- | --- | --- |
| 24 | 1470 | – | – | CN(C(=O)c1ccc2nc(N)c3cnn(C)c3c2c1)[C@@H]1COc2cc(-c3cc(C(F)(F)F)[nH]n3)ccc21 [Example 645, 4-amino-N,1-dimethyl-N-((3S)-6-(5-(trifluoromethyl)-1H-pyrazol-3-yl)-2,3-dihydro-1-benzofuran-3-yl)-1H-pyrazolo[4,3-c]quinoline-8-carboxamide] |
| 9 | 388 | – | – | CN(C(=O)c1cc2c(cn1)nc(N)c1cnn(C)c12)[C@@H]1COc2cc(-c3cnn(C(F)(F)F)c3)ccc21 [Example 241, 4-amino-N,1-dimethyl-N-((3S)-6-(1-(trifluoromethyl)-1H-pyrazol-4-yl)-2,3-dihydro-1-benzofuran-3-yl)-1H-pyr-azolo[4,3-c][1,7]naphthyridine-8-carboxamide] |
| 4 | 152 | – | – | CN(C(=O)c1ccc2nc(N)c3cnn(C)c3c2c1)[C@@H]1COCc2cc(C(F)(F)F)ccc21 [Example 499, 4-amino-N,1-dimethyl-N-((4S)-7-(trifluoromethyl)-3,4-dihydro-1H-2-benzopyran-4-yl)-1H-pyrazolo[4,3-c]quinoline-8-carboxamide] |
| 193 | 25200 | – | – | CCOc1ccc2c(n1)COC[C@H]2N(C)C(=O)c1ccc2nc(N)c3c(cnn3C)c2c1 (single isomer, unassigned) [Example 438] |
| 12 | 192 | – | – | CN(C(=O)c1cc2c(cn1)nc(N)c1cnn(C)c12)[C@@H]1COc2cc(C(F)(F)F)ccc21 [Example 237, 4-amino-N,1-dimethyl-N-((3S)-6-(trifluoromethyl)-2,3-dihydro-1-benzofuran-3-yl)-1H-pyr-azolo[4,3-c][1,7]naphthyridine-8-carboxamide] |
| 5050 | 38500 | – | – | CN(C(=O)c1cc2c3c(c(N)nc2cn1)COC3)C1COc2cc(Br)cnc21 (racemic) [Example 458, 4-amino-N-((3R)-6-bromo-2,3-dihydrofuro[3,2-b]pyridin-3-yl)-N-methyl-1,3-dihydrofuro[3,4-c][1,7]naphthyridine-8-carboxamide and 4-amino-N-((3S)-6-bromo-2,3-dihydrofuro[3,2-b]pyridin-3-yl)-N-methyl-1,3-dihydrofuro[3,4-c][1,7]naphthyridine-8-carboxamide] |
| 7320 | 50000 | – | – | CN(C(=O)c1cc2c3c(c(N)nc2cn1)COC3)[C@H]1COc2cc(S(C)(=O)=O)ccc21 (single isomer, unassigned) [Example 340] |
| 21 | 1120 | – | – | CN(C(=O)c1ccc2nc(N)c3cnn(C)c3c2c1)[C@@H]1COc2cc(-c3ccnc(OCC(F)(F)F)c3)ccc21 [Example 662, 4-amino-N,1-dimethyl-N-((3S)-6-(2-(2,2,2-trifluoroethoxy)-4-pyridinyl)-2,3-dihydro-1-benzofuran-3-yl)-1H-pyrazolo[4,3-c]quinoline-8-carboxamide] |
| 490 | 13500 | – | – | CN(C(=O)c1cc2c(cc1F)nc(N)c1cnn(C)c12)[C@H]1COc2cc(S(C)(=O)=O)ccc21 (single isomer, unassigned) [Example 379] |
